For 13 compounds, TGI and GI50 results are on record in PubChem BioAssay (NCI).

Structures are written as SMILES.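 Interpolation was linear, between the two tested concentrations surrounding the appropriate level; five concentrations were tested over 48 hours in 96-well plates. At the GI50, growth is halved. TGI marks complete inhibition of growth.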

Among the test systems are KM12 colon; LOX IMVI melanoma; MALME-3M melanoma; SF-268 CNS; CAKI-1 renal; MOLT-4 leukemia; RXF 393 renal; TK-10 renal; NCI/ADR-RES ovarian; MDA-MB-435.
Common to all, as to test: NCI anticancer screen, dose series, 48 h

As to `CC1=C(O)c2cn(C)cc2C(=O)C1=O`, the TGI in the experiment with KM12 colon, in the experiment on LOX IMVI melanoma, in the experiment with MALME-3M melanoma, in the experiment with SF-268 CNS, in the experiment on CAKI-1 renal and in the experiment with MOLT-4 leukemia was above 100 µM throughout. Moreover, the TGI in the experiment on RXF 393 renal and in the experiment on TK-10 renal was above 100 µM each time.

As to `N.N.NCCCCCN.O=C([O-])CCl.O=C([O-])CCl.O=C([O-])CCl.O=C([O-])CCl.[Pt+4].[Pt+4]`, the GI50 with KM12 colon is 20.9 µM; with LOX IMVI melanoma, 5.93 µM; in the experiment on MALME-3M melanoma, 11.9 µM; with SF-268 CNS, 2.13 µM; in the experiment on CAKI-1 renal, 1.2 µM; in the experiment on RXF 393 renal it was 2.87 µM. Moreover, in the experiment with TK-10 renal, the GI50 was 26.4 µM. In addition, the TGI is above 100 µM with KM12 colon; above 100 µM in the experiment with LOX IMVI melanoma; 39.2 µM in the experiment on MALME-3M melanoma; 36.8 µM with SF-268 CNS; 7.55 µM in the experiment with CAKI-1 renal; 21.1 µM in the experiment on RXF 393 renal. In the experiment with TK-10 renal, this compound returned a TGI above 100 µM.

As to `O=c1cc(-c2ccccc2)oc2ccc(OC/C(=N/O)c3ccccc3)cc12`, the GI50 was 1.95 µM with KM12 colon; 2.76 µM in the experiment with LOX IMVI melanoma; 3.3 µM with NCI/ADR-RES ovarian; 2.08 µM in the experiment on SF-268 CNS; 1.79 µM in the experiment on CAKI-1 renal; 5.72 µM in the experiment with MOLT-4 leukemia. Besides, the results for the GI50 with RXF 393 renal and in the experiment with TK-10 renal were 2.46 µM and above 50 µM, respectively. Further, the TGI with KM12 colon was above 50 µM; with LOX IMVI melanoma, 20.2 µM; in the experiment with NCI/ADR-RES ovarian it was above 50 µM; in the experiment on SF-268 CNS, 13.2 µM; in the experiment with CAKI-1 renal it was 16.2 µM; with MOLT-4 leukemia it was above 50 µM. In addition, the TGI is 14.8 µM in the experiment on RXF 393 renal and above 50 µM with TK-10 renal.

As for `COc1ccccc1NC(=O)C1=C(C)NC(C)=C(C(=O)Nc2ccccc2OC)C1C1=CC=COC1`, the TGI in the experiment with KM12 colon is 49.6 µM; with MALME-3M melanoma, above 100 µM; with SF-268 CNS it was 62.4 µM; with CAKI-1 renal, 56.8 µM; in the experiment with MOLT-4 leukemia it was above 100 µM; in the experiment with TK-10 renal it was 61.6 µM.

For the compound `Oc1ccc([Te]CCNCC[Te]c2ccc(O)cc2)cc1`, the TGI in the experiment with KM12 colon was above 100 µM; with LOX IMVI melanoma it was 43 µM; in the experiment on MALME-3M melanoma it was 69.3 µM; with SF-268 CNS, above 100 µM; with CAKI-1 renal it was above 100 µM; in the experiment with MOLT-4 leukemia it was above 100 µM. Besides, the TGI in the experiment with TK-10 renal worked out at 90.7 µM.

As to `COC(=O)CCC(NC(=S)N/N=C/c1ccccn1)C(=O)OC` (stereo not given), the TGI in the experiment on KM12 colon, in the experiment on LOX IMVI melanoma, in the experiment on MALME-3M melanoma, with SF-268 CNS, in the experiment with MOLT-4 leukemia and in the experiment on RXF 393 renal was above 100 µM throughout. For the same compound, the TGI in the experiment on TK-10 renal was above 100 µM.

Regarding `CC1=Nc2ccccc2NC(c2ccoc2)C1` (stereo not given), the TGI in the experiment on KM12 colon, in the experiment with LOX IMVI melanoma, in the experiment on MALME-3M melanoma, in the experiment with SF-268 CNS, with CAKI-1 renal and in the experiment with MOLT-4 leukemia was above 100 µM throughout. The TGI in the experiment on RXF 393 renal and in the experiment on TK-10 renal was above 100 µM throughout.

Turning to `CO/C=C/C(=O)c1cc2cnc3c(=N)cc(NC(=O)C(C)C)c([nH]1)c23`, the GI50 was 0.196 µM with KM12 colon; 0.0694 µM in the experiment with LOX IMVI melanoma; 0.0616 µM in the experiment on SF-268 CNS; 0.0159 µM with MOLT-4 leukemia; 0.0852 µM in the experiment with MDA-MB-435; 0.0301 µM with RXF 393 renal. The GI50 in the experiment with TK-10 renal was 0.0266 µM. Besides, the TGI in the experiment on KM12 colon is 1.86 µM; with LOX IMVI melanoma it was 0.429 µM; with SF-268 CNS it was 0.918 µM; in the experiment on MOLT-4 leukemia, 0.166 µM; in the experiment on MDA-MB-435 it was 0.836 µM; in the experiment on RXF 393 renal, 0.246 µM. The compound also registered a TGI in the experiment on TK-10 renal of 0.258 µM.

Regarding `COc1c(C)cc(O)cc1C=O`, the TGI in the experiment with KM12 colon, in the experiment on LOX IMVI melanoma, with MALME-3M melanoma, with SF-268 CNS, in the experiment on CAKI-1 renal and in the experiment with MOLT-4 leukemia was above 100 µM in each case. Besides, the TGI in the experiment on RXF 393 renal and in the experiment with TK-10 renal was above 100 µM in each case.

As for `COC(=O)C(=O)C(C(=O)C(=O)Nc1cccc(C(C)=O)c1)c1nc2ccc([N+](=O)[O-])cc2[nH]c1=O` (stereo not given), the TGI in the experiment on KM12 colon, in the experiment on LOX IMVI melanoma, in the experiment on MALME-3M melanoma, in the experiment with SF-268 CNS, in the experiment on CAKI-1 renal and in the experiment with MOLT-4 leukemia was above 100 µM in each case. Moreover, the TGI in the experiment with RXF 393 renal and with TK-10 renal was above 100 µM in each case.

For `O=C1CC(c2c(-c3ccccc3)[nH]c3ccccc23)C(=O)N1` (stereo not given), the TGI in the experiment on KM12 colon, in the experiment on MALME-3M melanoma, in the experiment with CAKI-1 renal, in the experiment with MOLT-4 leukemia, with RXF 393 renal and with TK-10 renal was above 100 µM each time.

As to `c1ccc([CH2][Sn]([CH2]c2ccccc2)([O]c2cccc3cccnc23)[O]c2cccc3cccnc23)cc1`, the GI50 with KM12 colon is 0.223 µM; in the experiment on LOX IMVI melanoma, 0.53 µM; in the experiment with MALME-3M melanoma, 0.266 µM; with SF-268 CNS, 1.2 µM; in the experiment on CAKI-1 renal, 0.92 µM; in the experiment on TK-10 renal, 1.67 µM. Further, the TGI with KM12 colon stood at 0.515 µM; in the experiment with LOX IMVI melanoma it was 1.65 µM; in the experiment on MALME-3M melanoma, 0.689 µM; in the experiment with SF-268 CNS it was 7.04 µM; with CAKI-1 renal it was 2.2 µM; in the experiment on TK-10 renal, 3.1 µM.

In the case of `O=C(/C=C/c1ccco1)c1cc(F)c(Cl)cc1Cl`, the GI50 in the experiment with KM12 colon is 19.7 µM; in the experiment on LOX IMVI melanoma it was 22.4 µM; in the experiment on MALME-3M melanoma, 16.5 µM; with SF-268 CNS, 20 µM; in the experiment on CAKI-1 renal it was 32.7 µM; in the experiment on MDA-MB-435, 32.2 µM. Further, the figures for the GI50 in the experiment with RXF 393 renal and with TK-10 renal were 19.1 µM and 28.4 µM, respectively. Besides, the TGI with KM12 colon was 56.4 µM; in the experiment on LOX IMVI melanoma, 58.2 µM; in the experiment with MALME-3M melanoma, 38.7 µM; in the experiment on SF-268 CNS it was 45.5 µM; in the experiment with CAKI-1 renal, above 100 µM; with MDA-MB-435, above 100 µM. Moreover, the TGI with RXF 393 renal stood at 37.7 µM; in the experiment on TK-10 renal, 90.1 µM.
